From patent US20240059695A1, “SUBSTITUTED IMIDAZO[1,5-b]PYRIDAZINE COMPOUNDS AS KINASE INHIBITORS AND USE THEREOF” (IMPACT THERAPEUTICS (SHANGHAI), INC, priority 2020, published 2024) come the findings set out here.

Common to all, as to assay type: cell-based
Experiment [1] concerns human ovarian cancer OVCAR-3 cell. Kind of experiment: MTT proliferation assay of Example 1, OVCAR-3. The following applies: OVCAR-3, 96 h, 4 days. How it is done:
(§1) The cells were digested by trypsinase and centrifuged at 800 rpm for 5 minutes, the supernatant was discarded, and the residual was resuspended with fresh medium (1640 medium+10% FRS) and counted. The cells were seeded into 96well cell culture plate with a density of 2000/4000 cells per well and incubated overnight in a 5% CO2 incubator at 37° C. The stock solutions of the test substances were serially diluted to 8 concentrations by DMSO at the ratios of 1:3 and 1:10, respectively. 5 μL diluent of each concentration was added to […] (25 times diluted) and mixed by shaking. The overnight cell plates were taken and the culture medium was removed, 195 μL of fresh medium was added to each well, and 5 μL of diluted medium containing the corresponding concentration of the test compound was added respectively (the final concentration of DMSO is 1%), and the culture plate was then placed in a 5% CO2 incubator at 37° C for 4 days. After removing the original solution, […] of fresh serum-free DMEM medium containing MTT (0.5 mg/mL) was added to each well, the culture was continued. After 4 hours, the original solution was removed, 100 μL, of DMSO was added to each well, the 96-well plates were shaken for 10 minutes in the dark and placed in a multi-function reader to read the absorbance at the wavelength of 552/690 nm. […]

Experiment [2] has as its system human large cell lung cancer NCI-H460 cell. Description: MTT proliferation assay of Example 1, NCI-H460. The following applies: NCI-H460, 96 h, 4 days. On the procedure:
as §1

Experiment [3] concerns human colon cancer LoVo cell. Description: MTT proliferation assay, LoVo. The following applies: Homo sapiens, LoVo, 96 h, MTT, 4 days; read-out: IC50 (nM), proliferation of LoVo cell. How it is done:
The cells were seeded into 96-well cell culture plate with a density of 2000/4000 cells per well and incubated overnight in a 5% CO2 incubator at 37° C. […] 5 μL diluent of each concentration was added to 120 μL of medium (25 times diluted) and mixed by shaking. The overnight cell plates were taken and the culture medium was removed, 195 μL of fresh medium was added to each well, and 5 μL of diluted medium containing the corresponding concentration of the test compound was added respectively (the final concentration of DMSO is 1%), and the culture plate was then placed in a 5% CO2 incubator at 37° C. for 4 days. After removing the original solution, […] of fresh serum-free DMEM medium containing MTT (0.5 mg/mL) was added to each well, the culture was continued. […] Cell viability (%)=(ODcompound−ODbackground)/ODDMSO−ODbackground)×100. GraphPad Prism 6.0 was used to analyze the data. The inhibitory activity of compounds on cell proliferation was plotted based on cell viability and the logarithm of compound concentration. The IC5.0 value was fitted by a sigmoidal dose response curve equation Y=100/(1+10^(LogC-LogIC50)), wherein C was the concentration of compound.

With `Cc1nc(-c2ccn[nH]2)n2nc(N3CCOC[C@H]3C)cc(-c3ccnn3C)c12` [Example 1, (R)-3-methyl-4-(5-methyl-4-(1-methyl-1H-pyrazol-5-yl)-7-(1H-pyrazol-5-yl)imidazo[1,5-b]pyridazin-2-yl)morpholine], the figures for the IC50 in experiment [1], in experiment [2] and in experiment [3] were 182 nM, 19 nM and 26.7 nM, respectively.
